# Assay results published in ChEMBL document CHEMBL1137428, “Synthesis and monoamine transporter binding properties of 2,3-cyclo analogues of 3beta-(4'-aminophenyl)-2beta-tropanemethanol” (J Med Chem, 2006).
# How the values were obtained:
# [1] = target: Sodium-dependent dopamine transporter (Homo sapiens, UniProt Q01959); experiment: Displacement of [3H]WIN-35428 from human DAT
# [2] = target: Sodium-dependent noradrenaline transporter (Homo sapiens, UniProt P23975); experiment: Displacement of [3H]nisoxetine from human NET
# Sodium-dependent noradrenaline transporter, sequence (P23975 whole entry): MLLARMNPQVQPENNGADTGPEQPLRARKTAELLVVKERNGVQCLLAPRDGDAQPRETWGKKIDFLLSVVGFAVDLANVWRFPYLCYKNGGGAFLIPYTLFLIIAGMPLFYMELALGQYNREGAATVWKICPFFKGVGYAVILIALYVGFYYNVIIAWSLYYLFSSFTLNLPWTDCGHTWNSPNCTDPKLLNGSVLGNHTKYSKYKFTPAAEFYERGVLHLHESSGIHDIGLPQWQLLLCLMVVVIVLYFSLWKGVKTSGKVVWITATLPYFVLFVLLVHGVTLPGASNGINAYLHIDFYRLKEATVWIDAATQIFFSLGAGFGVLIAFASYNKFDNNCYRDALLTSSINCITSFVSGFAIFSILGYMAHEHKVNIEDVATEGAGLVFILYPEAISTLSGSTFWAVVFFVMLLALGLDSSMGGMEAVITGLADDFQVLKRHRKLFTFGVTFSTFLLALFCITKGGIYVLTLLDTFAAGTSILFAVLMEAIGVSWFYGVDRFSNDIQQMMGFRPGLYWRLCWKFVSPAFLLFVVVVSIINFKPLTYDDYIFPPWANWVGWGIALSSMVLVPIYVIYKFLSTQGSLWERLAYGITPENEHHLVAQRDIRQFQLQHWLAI
# [3] = target: Sodium-dependent serotonin transporter (Homo sapiens, UniProt P31645); experiment: Displacement of [3H]paroxetine from human 5HTT
# Sodium-dependent serotonin transporter, sequence (P31645 whole entry): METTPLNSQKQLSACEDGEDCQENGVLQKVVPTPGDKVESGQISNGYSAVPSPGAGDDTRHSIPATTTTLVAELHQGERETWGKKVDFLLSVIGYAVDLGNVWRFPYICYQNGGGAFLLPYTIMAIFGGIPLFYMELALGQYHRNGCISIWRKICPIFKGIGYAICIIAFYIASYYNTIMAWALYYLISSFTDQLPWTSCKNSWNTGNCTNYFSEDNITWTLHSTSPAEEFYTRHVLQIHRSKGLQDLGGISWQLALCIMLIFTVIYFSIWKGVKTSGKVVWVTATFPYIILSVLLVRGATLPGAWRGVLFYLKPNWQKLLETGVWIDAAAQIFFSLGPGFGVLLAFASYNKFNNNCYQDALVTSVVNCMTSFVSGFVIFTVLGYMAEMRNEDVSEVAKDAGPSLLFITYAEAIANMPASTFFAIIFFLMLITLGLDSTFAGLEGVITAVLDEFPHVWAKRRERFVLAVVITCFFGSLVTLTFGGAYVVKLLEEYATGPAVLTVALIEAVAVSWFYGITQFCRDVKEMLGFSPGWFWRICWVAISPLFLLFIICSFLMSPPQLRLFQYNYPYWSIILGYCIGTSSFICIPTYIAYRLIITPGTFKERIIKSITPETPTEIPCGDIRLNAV
# Sodium-dependent dopamine transporter, sequence (Q01959 whole entry): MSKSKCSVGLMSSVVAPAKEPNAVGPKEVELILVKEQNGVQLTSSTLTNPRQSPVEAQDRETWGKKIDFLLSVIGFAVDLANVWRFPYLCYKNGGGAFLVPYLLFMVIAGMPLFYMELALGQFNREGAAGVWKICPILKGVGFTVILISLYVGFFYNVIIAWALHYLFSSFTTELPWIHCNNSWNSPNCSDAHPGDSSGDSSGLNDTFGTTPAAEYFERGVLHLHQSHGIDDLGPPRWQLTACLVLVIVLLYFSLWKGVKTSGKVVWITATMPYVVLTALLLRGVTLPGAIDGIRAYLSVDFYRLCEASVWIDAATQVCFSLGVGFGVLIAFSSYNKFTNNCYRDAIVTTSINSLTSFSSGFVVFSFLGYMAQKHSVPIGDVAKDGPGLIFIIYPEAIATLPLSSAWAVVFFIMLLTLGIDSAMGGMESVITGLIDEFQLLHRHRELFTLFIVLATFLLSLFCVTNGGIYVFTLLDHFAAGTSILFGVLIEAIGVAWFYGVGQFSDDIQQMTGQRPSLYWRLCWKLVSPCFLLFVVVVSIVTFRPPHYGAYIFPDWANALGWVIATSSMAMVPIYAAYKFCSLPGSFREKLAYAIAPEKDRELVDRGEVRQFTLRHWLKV
Compound,IC50 [1] [nM],IC50 [2] [nM],Ki [2] [nM],IC50 [3] [nM],Ki [3] [nM]
CN1C2CCC1C1COC(=O)CCCCCCCCC(=O)Nc3ccc(cc3)C1C2 (stereo not given),130,2800,1400,7.8,1.9
CN1C2CCC1C1COC(=O)Cc3ccc(cc3)CC(=O)Nc3ccc(cc3)C1C2 (stereo not given),> 2000,,> 2000,,> 2000
CN1C2CCC1C1COC(=O)CCCCC(=O)Nc3ccc(cc3)C1C2 (stereo not given),890,,> 2000,> 2000,
CN1C(=O)CCCCCCCCC(=O)OCC2C(CC3CCC2N3C)c2ccc1cc2 (stereo not given),1920,,> 2000,,> 2000
CN1C2CCC1C1COC(=O)CCCCCC(=O)Nc3ccc(cc3)C1C2 (stereo not given),3.8,40,20,200,50
CN1C2CCC1C1COC(=O)CCSCCC(=O)Nc3ccc(cc3)C1C2 (stereo not given),170,990,500,6730,1650
CN1C2CCC1C1COC(=O)CCC3(CCC(=O)Nc4ccc(cc4)C1C2)c1ccccc1-c1ccccc13 (stereo not given),290,980,490,> 2000,
CN1CCCCCCCCCCCC(=O)OCC2C(CC3CCC2N3C)c2ccc1cc2 (stereo not given),490,,> 2000,450,110
CN1C2CCC1C1COC(=O)CCC(=O)CCC(=O)Nc3ccc(cc3)C1C2 (stereo not given),160,1400,710,5010,1230
CN1C2CCC1C1COC(=O)CCCCCCCCCCC(=O)Nc3ccc(cc3)C1C2 (stereo not given),390,2320,1160,1200,290
CN1CCCCCCCCCC(=O)OCC2C(CC3CCC2N3C)c2ccc1cc2 (stereo not given),150,2130,1060,380,94
CN1C2CCC1C1COC(=O)CCCCCCC(=O)Nc3ccc(cc3)C1C2 (stereo not given),70,3040,1520,2090,513
CN1C2CCC1C1COC(=O)CCCCCCCC(=O)Nc3ccc(cc3)C1C2 (stereo not given),410,,> 2000,,> 2000
